Some test systems named below: CAKI-1 renal; HL-60(TB) leukemia; HT29 colon; NCI-H23 lung; NCI-H522 lung; OVCAR-3 ovarian; SN12C renal; SNB-75 CNS; TK-10 renal; UACC-62 melanoma.
Holding throughout (test): inhibition of tumour cell growth, NCI panel, 48 h

Among the data in PubChem BioAssay (NCI) are TGI and GI50 values, retold here.

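Values below derive from 48-hour exposures of cells grown in 96-well plates, with endpoints linearly interpolated between the two concentrations bracketing the appropriate inhibition level. GI50 marks 50% less growth. TGI marks complete inhibition of growth.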 Some results are limits rather than exact numbers.

As to `COC(=O)C12CC3CC(C1)CC(C(=O)OC)(C3)C2`, the TGI in the assay on CAKI-1 renal, in the assay with HL-60(TB) leukemia, in the assay with HT29 colon, with NCI-H23 lung, in the assay with NCI-H522 lung and with OVCAR-3 ovarian was over 100 µM each time. For the same compound, the TGI in the assay on SN12C renal, in the assay with SNB-75 CNS, in the assay with TK-10 renal and with UACC-62 melanoma was over 100 µM each time.

On to `COC(=O)C12C3C4C5C3(C#N)C1C5(C(=O)OC)C42C(=O)N(C(C)C)C(C)C` (stereo not given), for which the TGI is over 100 µM in the assay with CAKI-1 renal; over 60 µM in the assay with HL-60(TB) leukemia; over 100 µM in the assay on HT29 colon; over 100 µM in the assay on NCI-H23 lung; over 53.4 µM with NCI-H522 lung; over 100 µM in the assay with OVCAR-3 ovarian. The TGI in the assay with SN12C renal, with SNB-75 CNS, in the assay on TK-10 renal and in the assay with UACC-62 melanoma was over 100 µM throughout.

On to `CCCCc1ccc(-n2c3nc(=O)n(C)c(=O)c-3nc3ccccc32)cc1`, for which the TGI was found to be 54.5 µM in the assay with CAKI-1 renal; 32.5 µM with HL-60(TB) leukemia; 11.8 µM in the assay with HT29 colon; 8.19 µM in the assay with NCI-H23 lung; 20.2 µM in the assay on NCI-H522 lung; 10.1 µM with OVCAR-3 ovarian. For the same compound, the TGI in the assay with SN12C renal worked out at 20.9 µM; in the assay with SNB-75 CNS it was 30.3 µM; with TK-10 renal, 27.5 µM; in the assay on UACC-62 melanoma it was 4 µM.

Regarding `CCOC(=O)C1=C(Nc2ccc(Cl)cc2Cl)OC/C1=N\NS(=O)(=O)c1ccc(C)cc1`, the TGI in the assay with CAKI-1 renal, with HL-60(TB) leukemia, in the assay on HT29 colon, with NCI-H23 lung, in the assay on NCI-H522 lung and with OVCAR-3 ovarian was over 100 µM in each case. In addition, the TGI in the assay on SN12C renal, with SNB-75 CNS, with TK-10 renal and in the assay on UACC-62 melanoma was over 100 µM throughout.

Take `Nc1nc(=S)[nH]c(C(=O)Nc2ccc(Cl)c(Cl)c2)c1-c1ccc(Cl)cc1`: the TGI in the assay with CAKI-1 renal, with HL-60(TB) leukemia, in the assay with HT29 colon, in the assay with NCI-H23 lung, with NCI-H522 lung and with OVCAR-3 ovarian was over 100 µM throughout. Besides, the TGI in the assay with SN12C renal, in the assay with SNB-75 CNS, in the assay with TK-10 renal and with UACC-62 melanoma was over 100 µM in each case.

Turning to `Cc1cc(N2CCN(c3ccnc4cc(Cl)ccc34)CC2)nc(NC2CCCCC2)n1`, the GI50 in the assay with CAKI-1 renal was 1.63 µM; with HL-60(TB) leukemia it was 2.25 µM; in the assay with HT29 colon, 1.79 µM; in the assay with NCI-H23 lung it was 3.04 µM; in the assay on NCI-H522 lung, 1.93 µM; in the assay on OVCAR-3 ovarian, 1.9 µM. The GI50 in the assay on SN12C renal is 1.82 µM; in the assay on SNB-75 CNS, 1.79 µM; in the assay on TK-10 renal, 1.87 µM; with UACC-62 melanoma, 1.66 µM. Further, the TGI in the assay on CAKI-1 renal is 3.6 µM; with HL-60(TB) leukemia, 5.32 µM; with HT29 colon it was 3.9 µM; in the assay with NCI-H23 lung, 8.37 µM; in the assay with NCI-H522 lung, 3.8 µM; with OVCAR-3 ovarian, 3.9 µM. Besides, the TGI in the assay on SN12C renal was found to be 3.73 µM; with SNB-75 CNS it was 3.95 µM; in the assay on TK-10 renal it was 3.54 µM; in the assay on UACC-62 melanoma it was 3.34 µM.

In the case of `C[C@@H]1N=C(c2ccc(Br)cc2)Nc2nc3ccccn3c2C1=O`, the GI50 was 3.09 µM with CAKI-1 renal; 6.49 µM with HL-60(TB) leukemia; 3.73 µM in the assay with HT29 colon; 25.4 µM in the assay on NCI-H23 lung; 3.24 µM in the assay on NCI-H522 lung; 3.34 µM in the assay on OVCAR-3 ovarian. Also, the GI50 was 17.6 µM in the assay on SN12C renal, 0.703 µM with SNB-75 CNS, 21 µM in the assay with TK-10 renal and 4.35 µM in the assay on UACC-62 melanoma. For the same compound, the TGI was over 100 µM in the assay on CAKI-1 renal; over 100 µM with HL-60(TB) leukemia; over 100 µM in the assay on HT29 colon; over 100 µM in the assay on NCI-H23 lung; 18.4 µM with NCI-H522 lung; 17.8 µM in the assay with OVCAR-3 ovarian. Further, the TGI with SN12C renal is over 100 µM; in the assay with SNB-75 CNS, 7.06 µM; in the assay with TK-10 renal, over 100 µM; with UACC-62 melanoma, over 100 µM.

Consider `O=C(Nc1ccc(F)cc1F)c1cc(Br)ccc1O`, for which the GI50 is 1.76 µM in the assay on CAKI-1 renal; 2.44 µM in the assay on HL-60(TB) leukemia; 3.53 µM in the assay with HT29 colon; 2.43 µM in the assay on NCI-H23 lung; 2.83 µM in the assay on NCI-H522 lung; 2.89 µM in the assay on OVCAR-3 ovarian. For the same compound, the GI50 with SN12C renal is 2.26 µM; in the assay on SNB-75 CNS it was 0.558 µM; in the assay on TK-10 renal, 4.83 µM; in the assay on UACC-62 melanoma, 1.23 µM. For the same compound, the TGI was 6.66 µM in the assay on CAKI-1 renal; 7.17 µM in the assay with HL-60(TB) leukemia; over 100 µM in the assay on HT29 colon; 9.21 µM with NCI-H23 lung; 39.9 µM in the assay on NCI-H522 lung; over 100 µM in the assay with OVCAR-3 ovarian. Further, the TGI in the assay with SN12C renal is 9.26 µM; with SNB-75 CNS, 3.73 µM; with TK-10 renal, over 100 µM; with UACC-62 melanoma, 3.82 µM.
